Measured values taken from ChEMBL document CHEMBL1152470, “Antimicrobial activities of tigecycline and other broad-spectrum antimicrobials tested against serine carbapenemase- and metallo-beta-lactamase-producing Enterobacteriaceae: report from the SENTRY Antimicrobial Surveillance Program” (2008).
Values after ≈ are worked out from the molar mass of the structure shown.

Assays:
Assay type in all cases: functional
Enterobacteriaceae [1] = assay: Antimicrobial activity against carbapenemase producing Enterobacteriaceae by CLSI broth microdilution method
Enterobacteriaceae [2] = assay: Antimicrobial activity against carbapenemase producing Enterobacteriaceae assessed as susceptible isolates by CLSI breakpoint assay
Klebsiella sp. [3] = assay: Antimicrobial activity against Klebsiella sp. by CLSI broth microdilution method
Klebsiella sp. [4] = assay: Antimicrobial activity against Klebsiella sp. assessed as susceptible isolates by CLSI breakpoint assay
Klebsiella sp. [5] = assay: Antimicrobial activity against Klebsiella sp. assessed as resistant isolates by CLSI breakpoint assay
Enterobacter sp. [6] = assay: Antimicrobial activity against carbapenemase producing Enterobacter sp. by CLSI broth microdilution method
Enterobacter sp. [7] = assay: Antimicrobial activity against carbapenemase producing Enterobacter sp. assessed as susceptible isolates by CLSI breakpoint assay
Enterobacter sp. [8] = assay: Antimicrobial activity against carbapenemase producing Enterobacter sp. assessed as resistant isolates by CLSI breakpoint assay
Enterobacteriaceae [9] = assay: Antimicrobial activity against carbapenemase producing Enterobacteriaceae assessed as resistant isolates by CLSI breakpoint assay
Klebsiella pneumoniae [10] = assay: Antimicrobial activity against VIM1 carbapenemase producing Klebsiella pneumoniae […]
Klebsiella oxytoca [11] = assay: Antimicrobial activity against KPC2/3 carbapenemase producing Klebsiella oxytoca […]
Klebsiella oxytoca [12] = assay: Antimicrobial activity against KPC2 carbapenemase producing Klebsiella oxytoca […]
Klebsiella oxytoca [13] = assay: Antimicrobial activity against KPC3 carbapenemase producing Klebsiella oxytoca […]
Citrobacter freundii [14] = assay: Antimicrobial activity against KPC2/3 carbapenemase producing Citrobacter freundii […]
Citrobacter freundii [15] = assay: Antimicrobial activity against KPC2 carbapenemase producing Citrobacter freundii […]
Citrobacter freundii [16] = assay: Antimicrobial activity against KPC3 carbapenemase producing Citrobacter freundii […]
Enterobacter cloacae [17] = assay: Antimicrobial activity against KPC2/3 carbapenemase producing Enterobacter cloacae […]
Enterobacter cloacae [18] = assay: Antimicrobial activity against KPC2 carbapenemase producing Enterobacter cloacae […]
Enterobacter cloacae [19] = assay: Antimicrobial activity against NMC-A carbapenemase producing Enterobacter cloacae […]
Enterobacter cloacae [20] = assay: Antimicrobial activity against IMP1 carbapenemase producing Enterobacter cloacae […]
Enterobacter cloacae [21] = assay: Antimicrobial activity against VIM1 carbapenemase producing Enterobacter cloacae […]
Pluralibacter gergoviae = assay: Antimicrobial activity against KPC3 carbapenemase producing Enterobacter gergoviae […]
Enterobacter hormaechei = assay: Antimicrobial activity against KPC2 carbapenemase producing Enterobacter hormaechei […]
Serratia marcescens [22] = assay: Antimicrobial activity against KPC2/3 carbapenemase producing Serratia marcescens […]
Serratia marcescens [23] = assay: Antimicrobial activity against SME1 carbapenemase producing Serratia marcescens […]
Escherichia coli = assay: Antimicrobial activity against KPC2/3 carbapenemase producing Escherichia coli […]
Klebsiella pneumoniae [24] = assay: Antimicrobial activity against KPC2/3 carbapenemase producing Klebsiella pneumoniae […]
Klebsiella pneumoniae [25] = assay: Antimicrobial activity against KPC2 carbapenemase producing Klebsiella pneumoniae […]
Enterobacteriaceae [26] = assay: Antimicrobial activity against Enterobacteriaceae
Proteus mirabilis = assay: Antimicrobial activity against Proteus mirabilis

Row | Molecule | MIC50 (Enterobacteriaceae [1]) [µg/mL] | MIC90 (Enterobacteriaceae [1]) [µg/mL] | Activity (Enterobacteriaceae [2]) [%] | MIC50 (Klebsiella sp. [3]) [µg/mL] | MIC90 (Klebsiella sp. [3]) [µg/mL] | Activity (Klebsiella sp. [4]) [%] | Activity (Klebsiella sp. [5]) [%] | MIC50 (Enterobacter sp. [6]) [µg/mL] | MIC90 (Enterobacter sp. [6]) [µg/mL] | Activity (Enterobacter sp. [7]) [%] | Activity (Enterobacter sp. [8]) [%] | Activity (Enterobacteriaceae [9]) [%] | further results
1 | GENTAMICIN | 4 | > 8 | 73.3 | < 2 | > 8 | 58.3 | 31.2 | 8 | > 8 | 42.9 | 38.1 | – | –
2 | NCC[C@H](O)C(=O)N[C@@H]1C[C@H](N)[C@@H](O[C@H]2O[C@H](CN)[C@@H](O)[C@H](O)[C@H]2O)[C@H](O)[C@H]1O[C@H]1O[C@H](CO)[C@@H](O)[C@H](N)[C@H]1O [AMIKACIN] | 8 (≈ 13.7 µM) | 32 (≈ 54.6 µM) | 73.3 | 16 (≈ 27.3 µM) | > 32 | 53.3 | 13.3 | 2 (≈ 3.42 µM) | 16 (≈ 27.3 µM) | 95.2 | 4.8 | 8.3 | –
3 | CN(C)[C@@H]1C(O)=C(C(N)=O)C(=O)[C@@]2(O)C(O)=C3C(=O)c4c(O)cccc4[C@@](C)(O)[C@H]3C[C@@H]12 [TETRACYCLINE] | 4 (≈ 9 µM) | > 8 | 35.6 | 4 (≈ 9 µM) | > 8 | 66.7 | 13.3 | 4 (≈ 9 µM) | > 8 | 70.8 | 20.8 | 19.2 | –
4 | CN(C)c1cc(NC(=O)CNC(C)(C)C)c(O)c2c1C[C@H]1C[C@H]3[C@H](N(C)C)C(O)=C(C(N)=O)C(=O)[C@@]3(O)C(O)=C1C2=O [TIGECYCLINE] | 0.5 (≈ 0.854 µM) | 1 (≈ 1.71 µM) | 100 | 1 (≈ 1.71 µM) | 2 (≈ 3.41 µM) | 100 | 0 | 0.25 (≈ 0.427 µM) | 0.5 (≈ 0.854 µM) | 100 | 0 | 0 | MIC (Klebsiella pneumoniae [10]): 0.12 µg/mL (≈ 0.205 µM); MIC (Klebsiella oxytoca [11]): 0.25 µg/mL (≈ 0.427 µM); MIC (Klebsiella oxytoca [12]): 0.12 µg/mL (≈ 0.205 µM); MIC (Klebsiella oxytoca [13]): 0.5 µg/mL (≈ 0.854 µM); MIC (Citrobacter freundii [14]): 0.25 µg/mL (≈ 0.427 µM); MIC (Citrobacter freundii [15]): 1 µg/mL (≈ 1.71 µM); MIC (Citrobacter freundii [16]): 0.12 µg/mL (≈ 0.205 µM); MIC (Enterobacter cloacae [17]): 0.12 µg/mL (≈ 0.205 µM); MIC (Enterobacter cloacae [18]): 0.5 µg/mL (≈ 0.854 µM); MIC (Enterobacter cloacae [19]): 0.12 µg/mL (≈ 0.205 µM); MIC (Enterobacter cloacae [20]): 0.25 µg/mL (≈ 0.427 µM); MIC (Enterobacter cloacae [21]): 0.25 µg/mL (≈ 0.427 µM); MIC (Pluralibacter gergoviae): 0.25 µg/mL (≈ 0.427 µM); MIC (Enterobacter hormaechei): 2 µg/mL (≈ 3.41 µM); MIC (Serratia marcescens [22]): 0.5 µg/mL (≈ 0.854 µM); MIC (Serratia marcescens [23]): 0.5 µg/mL (≈ 0.854 µM); MIC (Escherichia coli): 0.12 µg/mL (≈ 0.205 µM); MIC (Klebsiella pneumoniae [24]): 0.25 µg/mL (≈ 0.427 µM); MIC (Klebsiella pneumoniae [25]): 1 µg/mL (≈ 1.71 µM)
5 | C[C@@H](O)[C@H]1C(=O)N2C(C(=O)O)=C(S[C@@H]3CN[C@H](C(=O)N(C)C)C3)[C@H](C)[C@H]12 [MEROPENEM] | 8 (≈ 20.9 µM) | > 8 | 32.7 | > 8 | > 8 | 20 | 61.7 | 8 (≈ 20.9 µM) | > 8 | 33.3 | 41.7 | 50 | MIC (Enterobacteriaceae [26]): ≥ 2 µg/mL; MIC (Proteus mirabilis): ≥ 16 µg/mL
6 | POLYMYXIN B | < 1 | 4 | 88.1 | < 1 | < 1 | 93.3 | 6.7 | < 1 | < 1 | 95.2 | 4.8 | 11.9 | –
7 | C[C@@H](O)[C@H]1C(=O)N2C(C(=O)O)=C(SCCNC=N)C[C@H]12 [IMIPENEM ANHYDROUS] | 8 (≈ 26.7 µM) | > 8 | 37.5 | 8 (≈ 26.7 µM) | 16 (≈ 53.4 µM) | 21.7 | 46.7 | 4 (≈ 13.4 µM) | > 8 | 54.2 | 17.7 | – | –
8 | C[C@@H](O)[C@H]1C(=O)N2C(C(=O)O)=C(S[C@@H]3CN[C@H](C(=O)Nc4cccc(C(=O)O)c4)C3)[C@H](C)[C@H]12 | 8 (≈ 16.8 µM) | 32 (≈ 67.3 µM) | 7.7 | > 8 | > 32 | 5 | 83.3 | > 8 | > 16 | 8.3 | 12.5 | 73.1 | –
